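Step 1: Grow cells in 96-well plates. Step 2: Expose to compound for 48 hours at 5 concentrations. Step 3: Interpolate endpoints linearly; if unreached, use highest concentration. At the GI50, growth is halved. At the TGI there is no net growth.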
Columns and labels:
Assay in all cases: inhibition of tumour cell growth, NCI panel, 48 h
HOP-62 NSCLC = test system: HOP-62 NSCLC
MOLT-4 leukemia = test system: MOLT-4 leukemia
NCI-H226 lung = test system: NCI-H226 lung
OVCAR-3 ovarian = test system: OVCAR-3 ovarian
SK-MEL-5 melanoma = test system: SK-MEL-5 melanoma
SW-620 colon = test system: SW-620 colon
TK-10 renal = test system: TK-10 renal
UO-31 renal = test system: UO-31 renal
UACC-62 melanoma = test system: UACC-62 melanoma
PC-3 prostate = test system: PC-3 prostate

| SMILES | TGI (HOP-62 NSCLC) [µM] | TGI (MOLT-4 leukemia) [µM] | TGI (NCI-H226 lung) [µM] | TGI (OVCAR-3 ovarian) [µM] | TGI (SK-MEL-5 melanoma) [µM] | TGI (SW-620 colon) [µM] | TGI (TK-10 renal) [µM] | TGI (UO-31 renal) [µM] | TGI (UACC-62 melanoma) [µM] | GI50 (HOP-62 NSCLC) [µM] | GI50 (MOLT-4 leukemia) [µM] | GI50 (PC-3 prostate) [µM] | TGI (PC-3 prostate) [µM] | GI50 (TK-10 renal) [µM] | GI50 (UO-31 renal) [µM] |
| --- | --- | --- | --- | --- | --- | --- | --- | --- | --- | --- | --- | --- | --- | --- | --- |
| NNC(=O)/C(=C/c1cccc([N+](=O)[O-])c1)NC(=O)c1ccccc1 | > 100 | > 100 | > 100 | > 100 | > 100 | > 100 | > 100 | > 100 |  |  |  |  |  |  |  |
| O/N=C1/C(=C/c2ccc(F)cc2)CCCC1C(NO)c1ccc(F)cc1 (configuration not stated) | > 100 | 55.3 |  | 72.8 | 39.2 | > 100 | > 100 | 72.5 | > 100 |  |  |  |  |  |  |
| CCCCCCC(=O)C/C(CCC(=O)N(Cc1ccccc1)Cc1ccccc1)=N\Nc1ccc([N+](=O)[O-])cc1[N+](=O)[O-] | > 100 |  | > 100 | > 100 | > 100 | > 100 | > 100 | > 100 | > 100 |  |  |  |  |  |  |
| COc1cc(C2C(Cl)C(=O)N2n2cnc3ccccc3c2=O)cc(OC)c1OC (configuration not stated) | > 100 | > 100 | > 100 | > 100 | > 100 | > 100 | > 100 | > 100 | > 100 |  |  |  |  |  |  |
| CCOP(=O)(OCC)C1C(=O)O[C@H]2CCCC[C@@H]12 (some centres not stated) | > 100 | > 100 |  | > 100 | > 100 | > 100 | > 100 |  | > 100 |  |  |  |  |  |  |
| CCCCN(CCCC)C(=O)C(=O)CC(=O)c1ccc(Br)cc1 | > 100 | > 100 | > 100 | > 100 | > 100 | > 100 | > 100 | > 100 | > 100 |  |  |  |  |  |  |
| CC1=C(C(=O)Nc2ccccc2)C(c2ccc3c(c2)OCO3)C(C(=O)Nc2ccccc2)=C(C)N1 | > 100 | 82 | > 100 | > 100 | > 100 | 12.3 | > 100 | > 100 | > 100 |  |  |  |  |  |  |
| CC12OC(C(=O)C13CC3)C1C(=O)c3ccccc3C(=O)C12 (configuration not stated) | 80 | > 100 |  |  |  |  | 58.8 | > 100 |  | 27.8 | 32 | 19.8 | 52.9 | 22.8 | 32.8 |
| CC1=COC(=O)c2ccccc2N1 | > 100 |  | > 100 | > 100 | > 100 | > 100 | > 100 | > 100 | > 100 |  |  |  |  |  |  |
| CCOC(=O)Cc1c(Cc2[nH]c(C(=O)OCc3ccccc3)c(CC(=O)OCC)c2CC(=O)OCC)[nH]c(C(=O)OCc2ccccc2)c1CC(=O)OCC | > 100 | > 100 |  | > 100 | > 100 | > 100 |  | > 100 | > 100 |  |  |  |  |  |  |
| O=C1C2=C(c3ccccc31)C(c1ccc(Cl)cc1)N1C(=O)CCSC1=N2 (configuration not stated) | > 100 | > 100 | > 100 | > 100 | > 100 | > 100 | > 100 | > 100 | > 100 |  |  |  |  |  |  |
| Cc1c(NC(=O)C(=O)N=NC(=O)c2ccncc2)c(O)c2ccccc2c1O | 40.7 | > 77.8 | 29.5 | 29.1 | 5.8 | 33 | > 100 | 40.5 | 6.07 |  |  |  |  |  |  |
| O=C(Cc1ccccc1)NN1C(=O)C(Cl)C1c1cccc(O)c1 (configuration not stated) | 80.6 | 31.6 | 43.4 | 28.1 |  | 16.7 | 34.1 | 29.4 |  |  |  |  |  |  |  |
| CC(Cl)(/C=C/Cl)C(Cl)/C=C/C(Cl)(CCl)CBr (configuration not stated) | 42.8 | 3.36 | 22.9 | 25.3 | 25.1 | 8 | 20.5 | 28.6 | 5.2 |  |  |  |  |  |  |
| Cc1cc(Br)cc(C)c1NC(=O)C(=O)CC(=O)c1sc(-n2nc(-c3ccccc3)cc2-c2ccccc2)nc1C | > 100 | > 100 | > 100 | > 100 |  | > 100 | > 100 | > 100 | > 100 |  |  |  |  |  |  |
| COc1ccc(/C=C2/CCCC/C2=N/O)cc1 | > 100 | > 100 |  | > 100 |  | > 100 | > 100 | > 100 | > 100 |  |  |  |  |  |  |
| COC(=O)Nc1nc2ccc(C(=O)c3ccc[nH]3)cc2[nH]1 | > 95.9 | > 100 |  |  |  | > 100 | > 93.6 |  | > 100 |  |  |  |  |  |  |
| Cn1nc(-c2ccccc2NC(=O)C(F)(F)F)c(=O)n(C)c1=S | > 100 | > 100 | > 100 | 40.6 | > 100 | > 100 | > 100 | 74.4 |  |  |  |  |  |  |  |

| SMILES | TGI (HOP-62 NSCLC) [µM] | TGI (MOLT-4 leukemia) [µM] | TGI (NCI-H226 lung) [µM] | TGI (OVCAR-3 ovarian) [µM] | TGI (SK-MEL-5 melanoma) [µM] | TGI (SW-620 colon) [µM] | TGI (TK-10 renal) [µM] | TGI (UO-31 renal) [µM] | TGI (UACC-62 melanoma) [µM] | GI50 (HOP-62 NSCLC) [µM] | GI50 (MOLT-4 leukemia) [µM] | GI50 (PC-3 prostate) [µM] | TGI (PC-3 prostate) [µM] | GI50 (TK-10 renal) [µM] | GI50 (UO-31 renal) [µM] |
| --- | --- | --- | --- | --- | --- | --- | --- | --- | --- | --- | --- | --- | --- | --- | --- |
| CNC(=O)OCc1nc(SC(C)C)n(C)c1COC(=O)NC | > 100 | > 86.6 | > 100 | > 100 | > 100 | > 100 |  | > 100 | > 100 |  |  |  |  |  |  |
| CCOC(=O)/C(C1=N[C@H](C(=O)OCC)CS1)=C(\C)O | > 100 | > 100 | > 100 | > 100 | > 100 | > 100 |  | > 100 | > 100 |  |  |  |  |  |  |
| COc1cc(O)c(C(=O)/C=C/c2ccccc2)c(OC)c1 | 38.5 | 25 | 12.8 | 44.7 | 24.2 | 23.8 | 19.7 | 17.6 | 17.3 |  |  |  |  |  |  |
| COc1ccc(-c2oc3cc(O)c(OC)c(O)c3c(=O)c2OC2OC(CO)C(O)C(O)C2O)cc1 (configuration not stated) |  | > 100 |  | > 100 | > 100 | > 100 | > 100 | > 100 | > 100 |  |  |  |  |  |  |
| Cn1ncc2cc3c(Nc4ccc(Cl)cc4)cccc3nc21 | 53 | 36.3 |  | 44 | 29.4 | 48.8 | > 100 | 88.7 | 32.7 |  |  |  |  |  |  |
| CC(=O)O[C@H]1C(=O)[C@@]2(C)C([C@H](OC(=O)c3ccccc3)[C@]3(O)C[C@H](OC(=O)[C@H](O)[C@H](NC(=O)c4ccccc4)c4ccc(Cl)cc4)C(C)=C1C3(C)C)C1(OC(C)=O)CO[C@@H]1C[C@@H]2O (some centres not stated) | 26.5 | 2.36 | 0.0497 | 0.0124 | 1.76 | 18.3 | 14.4 | 11 | 0.00418 | 0.0321 |  |  |  | 0.0171 | 1.97 |
| O=C(O)CN(c1ccc(Cl)cc1)S(=O)(=O)c1ccccc1 |  | > 100 | > 100 | > 100 | > 100 | > 100 | > 100 | > 100 | > 100 |  |  |  |  |  |  |
| Cc1cc(C)nc(NS(=O)(=O)c2ccc(Nc3c4ccccc4nc4c(C(=O)Nc5ccc(S(N)(=O)=O)cc5)cccc34)cc2)n1 | > 100 | > 100 |  | > 100 | > 100 | > 100 |  | > 100 | > 100 |  |  |  |  |  |  |
| N[C@H]1C2C3CC4C5CC(C42)C1(c1ccccc1)C53 (some centres not stated) | > 100 | > 100 | > 100 | > 100 | > 100 | > 100 | > 100 | > 100 | > 100 |  |  |  |  |  |  |
| NC(N)=NS(=O)(=O)c1ccc(NC(=O)c2cccc3c(Nc4ccc(S(=O)(=O)N=C(N)N)cc4)c4ccc(Cl)cc4nc23)cc1 | > 100 | > 100 |  | > 100 | > 100 | > 100 | > 100 | > 100 | > 100 |  |  |  |  |  |  |
| COc1c(OC(C)=O)ccc(/C=C2\N=C(C)OC2=O)c1[N+](=O)[O-] | > 100 | > 100 |  |  | > 100 | > 100 | > 100 | > 100 | > 100 |  |  |  |  |  |  |
| ClC(=Nc1cccc2ccccc12)N(c1ccccc1)c1ccccc1 | > 100 |  |  | > 100 |  | > 100 | > 100 | > 100 | > 100 |  |  |  | > 100 |  |  |
| O=[N+]([O-])c1ccc(-c2ccc(/C=N/n3c(-c4ccc(Cl)cc4)n[nH]c3=S)o2)cc1 | > 52.9 | > 100 | > 58.5 | > 66.8 | 49.8 | > 68.5 | > 64.7 | > 100 | > 100 |  |  |  |  |  |  |
| COC1C=C(Nc2cccc(Cl)c2)C(=O)C1 (configuration not stated) | > 100 | > 100 | > 100 | > 100 | > 100 | > 100 | > 100 | > 100 | > 100 |  |  |  |  |  |  |
| CC(=O)Oc1c(C)n(CCCl)ccc1=O | > 100 | > 100 | > 100 | > 100 | > 100 |  | 73.8 | > 100 | > 100 |  |  |  |  |  |  |
| S=c1[nH]nc(COc2ccc(Cl)cc2)o1 | > 100 | > 100 | > 100 | > 100 | > 100 | 29.8 | > 100 | > 100 | > 100 |  |  |  |  |  |  |
| C/C(=N\N(C)C)c1sc(-n2nc(-c3ccccc3)cc2-c2ccccc2)nc1C | > 100 | > 100 | > 100 | > 100 | > 100 | > 100 | > 100 | > 100 | > 100 |  |  |  |  |  |  |

— PubChem BioAssay (NCI)
